“Also recorded” adds a separate entry of the source. Where two headings read alike, the source gives them in different places.

The text below walks through data of patent US4966169A, “Process for manufacturing cigarettes” (priority 1988, dated 1990).

For data set [1] the following is noted: cited from earlier work.
The test system of data set [2] is rats. To be noted: cited from earlier work.
The test system of data set [3] is human exposure. Description: OSHA time weighted average (TWA) exposure limit. To be noted: TWA 200 mg/m^3. The source says: On the other hand, the quantity of alcohol transferred and inhaled by the smoker must be at a safe amount and less than the maximum volumetric concentrations permitted for each alcohol by any applicable government regulation, such as in the United States those of the U.S. Occupational Safety and Health Administration (OSHA) Time Weighted Average (TWA). Other helpful guidelines are published by the Flavoring Extract Manufacturers' Association (Generally Regarded As Safe list), and the Hunter Committee from Great Britain. If a substance has not been evaluated in the literature, the toxicity of that substance (alcohol) should be evaluated before use. Compounds or alcohols herein are analyzed individually and the toxicity of a mixture of compounds is assumed to be the toxicity of the most toxic individual substance in the compound. It is expected that 1-1000 micrograms (and more particularly approximately 800 micrograms) of the blocking alcohol(s) would be needed on the rag tobacco for a cigarette containing 400-1200 milligrams (and more particularly approximately 800 milligrams) of tobacco. Yet another way of defining the quantity of alcohol is its concentration in air, which should be about 0.1% to 0.001% (see Example 3, supra). […]

In data set [4] the test system is human exposure. To be noted: cited from earlier work.
For data set [5], the system named is bronchial epithelium. The data set can be described thus: Examples 2 and 3: cyclohexanol vapor inhalation, whole-body autoradiography after [14C] NNN. To be noted: inhaled 5 min. It counts as in vivo, C57BL/6J mouse. Here is the method: The mouse was kept in the closed beaker for about five minutes as the bottom of the beaker was maintained at 50° C. in a water bath. […] Handbook of Chemistry and Physics (1979) at D-203 to D-217.
One hour later, the mouse was anesthetized lightly by ether and frozen by immersion in dry ice/hexane. […] Control experiments were conducted for comparison purposes and radioactivity was detected in the respiratory epithelium in the controls.
Example 2 was duplicated, except that the mouse was kept in the closed beaker for five minutes as the bottom of the beaker was maintained at 26° C. in a water bath. […] After injection as in Example 2, the mouse was processed in the same manner as in Example 2.

Data set [6] relates to nitrosamines such as NNN and metabolites thereof in mammalian tissues. The data set can be described thus: Inhibition of selective localization of nitrosamines (general statements). To be noted: qualitative statement. It counts as in vivo.
The subject of data set [7] is tissue macromolecules. To be noted: cited from earlier work; for metabolic activation: rats, hamsters and monkeys; for binding of metabolites to macromolecules: tracheobronchial and nasal mucosa, kidney, liver, sublingual and submaxillary glands, esophagus, melanin of the eye.
Data set [8] deals with rodents. To be noted: cited from earlier work; for carcinogenicity: rat, in vivo.
The test system of data set [9] is formation of nitrosamines on epithelial membranes. To be noted: cited from earlier work.
Data set [10] concerns salivary duct epithelium. To be noted: oral intubation 20 min before [14C] NNN. Here is the method:
(§1) One hour later, the mice were anesthetized lightly with ether and frozen by immersion in dry ice/hexane. Twenty u-thick whole-body sagittal sections of the frozen mice were taken onto Scotch tape and were then processed for whole-body autoradiography by known methods. See W. Waddell et al, Drug Fate and Metabolism: Methods and Techniques, E.R. Garrett and J. L. Hirtz, Eds. […] Photometric density in areas of the developed autoradiographs was measured with an ADG Instruments photometer and a photocell with an aperture of three mm lying on the easel of a photographic enlarger. The X-ray film was placed in the enlarger and raised to produce a magnification of thirty-five times on the easel.
(§2) NNN. […] (Twenty minutes is the average time it takes for alcohols introduced by oral intubation into mice to reach the peak blood level.)
(§3) The number within each bar thereof represents the dose in g/kg of that alcohol which was administered orally twenty minutes before the [^14 C] NNN was given intravenously. The mice were frozen one hour after receiving the [^14 C] NNN. The means for each mouse were from fifteen measurements on random areas of that site (five absorbancies on each of three autoradiographs) after setting blood in each on zero. The control value is the mean from six mice; the n-butanol at 1 g/kg is from two mice; the other means are from one mouse.

For data set [11], the system named is periportal and central areas of the liver. To be noted: oral intubation 20 min before [14C] NNN. Here is the method:
as §1, §2, §3

For data set [12], the system named is bronchial epithelium. Description: Example 1: whole-body autoradiography, inhibition of localization of [14C] NNN radioactivity in bronchial epithelium. It counts as in vivo, C57BL/6J mice. To be noted: for dose relation of reduction in photometric density: oral alcohols. Here is the method: as §1, §2, §3
In data set [13] the test system is nitrosamine localization. The data set can be described thus: Examples 4 and 5: intraperitoneal imidazole, whole-body autoradiography after [14C] NNN. It counts as in vivo, C57BL/6J mouse. Here is the method:
An adult male C57BL/6J mouse was injected intraperitoneally with 0.02 ml/g body weight of a solution of imidazole in water. The imidazole solution concentration was such that 0.05 g of imidazole was delivered per kg of body weight. […] See Example 1.
Example 4 was duplicated except that the adult mouse was injected intraperitoneally with 0.02 ml/g body weight of a solution of imidazole in water, wherein the solution concentration was such that 0.25 g of imidazole was delivered per kg of body weight.

In data set [14] the test system is adult human. To be noted: cited from earlier work.
Data set [15] has as its system tumor development. To be noted: cited from earlier work.

Turning to `CC(O)CCO` (stereo not drawn) [1,3 Butanediol], the “Vapor Pressure” value in [1] (20° C.) is recorded as “.06 mmHg”. `CCC(CC)CO` [2-Ethyl butyl alcohol]: the “Vapor Pressure” value in data set [1] (20° C.) is 0.9 mmHg. Consider `CC(C)CC(C)O` (stereo not drawn) [4-methyl-2-pentanol], for which, in data set [2] (rats, oral), the “Acute Oral LD50” value is 2.6 g/kg.

On to `CCCCCCC(C)O` (stereo not drawn) [Capryl alcohol], for which the “Vapor Pressure” value in [1] (32.8° C.) is given as 1 mmHg. For `CCCCCCCCCCCCCCCCO` [Cetyl alcohol], the “Acute Oral LD50” value in [2] (rats, oral) is given as 20 g/kg. Moreover, the “Vapor Pressure” value in [1] (122.7° C.) was 1 mmHg. `OCC=Cc1ccccc1` [Cinnamyl alcohol]: the “Vapor Pressure” value in data set [1] (72.6° C.) is 1 mmHg. Turning to `OC1CCCCC1` [Cyclohexanol], the “Acute Oral LD50” value in data set [2] (rats, oral) is reported as 2.06 g/kg. Moreover, the “concentration in cigarette smoke at TWA limit of OSHA” value in data set [3] is 63 micrograms/cigarette. The “Toxicity (TWA OSHA)” value in data set [4] (8 h work day, 40 h work week) is listed as 200 mg/m^3. For the same molecule, the “atmosphere concentration considered safe by OSHA” value in [4] (eight continuous hours) is given as “two hundred”. The “Vapor Pressure” value in [1] (21° C.) was 1 mmHg. Moreover, the “radioactivity in bronchial epithelium” value is recorded as “No radioactivity was detected” in data set [5] (26° C., 0.001% in air) and “No radioactivity was detected” in data set [5] (50° C., 0.01% in air). With `CCCCCCCCCCCCO` [Lauryl alcohol], in data set [1] (91° C.), the “Vapor Pressure” value was 1 mmHg. Take `CC1CCC(C(C)C)C(O)C1` (stereo not drawn) [Menthol, reference compound]: in data set [2] (rat, in vivo, po), the “Acute Oral LD50” value is listed as 3.18 g/kg. The “Vapor Pressure” value in data set [1] (56° C.) is reported as 1 mmHg. Moreover, the “inhibition of nitrosamine localization” value in data set [6] is given as “does not have the nitrosamine blocking effect; also recorded: does not inhibit nitrosamine localization”. As for `CN(CCCC(=O)c1cccnc1)N=O` [NNK, 4(methylnitrosamino)-1-(3-pyridyl)-1-butanone], in [7], the metabolic activation entry was “most likely starts with a-carbon hydroxylation” and the “binding of metabolites to macromolecules” value is on record as “bind to macromolecules”. The carcinogenicity result in data set [8] was “powerful environmental carcinogens”. As for `O=NN1CCCC1c1cccnc1` (stereo not drawn) [NNN, Nnitrosonornicotine], in data set [7] (F-344 rat esophagus vs other tissues), the metabolism result is “preferentially catalyzes hydroxylation at the a-carbon of NNN adjacent to the pyridine ring”. Besides, in [7], the metabolic activation result is “most likely starts with a-carbon hydroxylation” and the “binding of metabolites to macromolecules” value was “bind to macromolecules”. Also, in data set [7] (whole-body autoradiography, adult male C57BL/6J mice, [14C] NNN), the “retention of radioactivity vs sites of tumor formation” value was “striking correlation”. Moreover, the tumor induction result in data set [8] (F-344 rats, drinking water) is reported as “esophageal tumors have been induced”. The “sites of tumor formation” value in data set [8] (nasal cavity, salivary duct, esophagus, bronchial epithelium and liver) was “induces tumor formation at five sites”. The carcinogenicity entry in [8] is given as “powerful environmental carcinogens”. The carcinogenesis result in data set [8] (rodents, olfactory epithelium, lung, salivary glands) was “induce carcinogenesis in the olfactory epithelium, lung, salivary glands”. On to `CC(C)(O)C(C)(C)O` [Pinacol], for which the “Vapor Pressure” value in data set [1] (44° C.) is listed as 1 mmHg. Turning to `CCCCCCCCCCCCCCCCCCO` [Stearyl alcohol], the “Vapor Pressure” value in [1] (50° C.) is recorded as 1 mmHg. As for `O=C1O[C@H]([C@@H](O)CO)C(O)=C1O` [Vitamin C], the “formation of nitrosamines on epithelial membranes” value in [9] is “prevent the formation of nitrosamines”. For `S=C=NCc1ccccc1` [benzylisothiocyanate], in data set [6], the “inhibition of nitrosamine localization” value is recorded as “found to delocalize nitrosamines”.

Consider `C[S+](C)[O-]` [dimethylsulfoxide (DMSO), dimethylsulfoxide], for which, in data set [6], the “inhibition of nitrosamine localization” value is given as “found to delocalize nitrosamines”. In the case of `CCO` [ethanol], in data set [2] (rats, oral), the “Acute Oral LD50” value is recorded as 14 g/kg. Also, the “reduction of localization of radioactivity in salivary duct epithelium” value in [10] was “reduced”. In data set [11], the “reduction of localization of radioactivity in periportal and central areas of the liver” value is given as “reduced”. Moreover, the “dose relation of reduction in photometric density” value (“dose relation of reduction” for short) in data set [12] is recorded as “dose related”. Besides, in data set [12] (oral intubation 20 min before [14C] NNN, ethanol 1 and 5 g/kg, butanols 0.2 and 1 g/kg), the “reduction of localization of radioactivity in bronchial epithelium” value is “reduced”. As for `c1c[nH]cn1` [imidazole], the “nitrosamine delocalization relative to control mouse” value is listed as “Significant nitrosamine delocalization” in [13] (0.05 g/kg intraperitoneal, 20 min before [14C] NNN) and “significant delocalization of nitrosamine” in [13] (0.25 g/kg intraperitoneal). In addition, the “inhibition of nitrosamine localization” value in data set [6] is listed as “found to delocalize nitrosamines”. `CCCCCCCCCCO` [n-Decyl alcohol]: the “Vapor Pressure” value in data set [1] (69.5° C.) is reported as 1 mmHg. On to `CCCCCCCCCO` [n-Nonyl alcohol], for which, in data set [1] (59.5° C.), the “Vapor Pressure” value is given as 1 mmHg.

Consider `CCCCCO` [n-amyl, n-amyl alcohol], for which, in [2] (rat, in vivo, po), the “Acute Oral LD50” value is reported as 3.03 g/kg. Regarding `CCCCO` [n-butanol], the “Acute Oral LD50” value in [2] (rats, oral) is 0.79 g/kg. In data set [12], the “dose relation of reduction” value is reported as “dose related”.

On to `CN1CCCC1c1cccnc1` (stereo not drawn) [nicotine], for which the “estimated acutely fatal oral dose” value in data set [14] is on record as “one”. On to `c1cn[nH]c1` [pyrazole], for which the “inhibition of nitrosamine localization” value in [6] is given as “found to delocalize nitrosamines”. In the case of `CC1=C(/C=C/C(C)=C/C=C/C(C)=C/CO)C(C)(C)CCC1` [retinol, reference compound], in [2] (rat, in vivo, po), the “Acute Oral LD50” value is on record as 2.0 g/kg. Take `CC(C)(C)O` [t-butanol]: the “localization of [14C] NNN in bronchial epithelium” value in data set [12] (at the high dosage (1 g/kg), oral) is given as “almost completely abolished”. Further, in [12] (comparison of ethanol, n-butanol, t-butanol), the “inhibition ranking in bronchial epithelium (FIG. 1)” value is “greatest inhibition”. Further, the “dose relation of reduction” value in data set [12] is given as “dose related”.

As to Dipropylene glycol monomethyl, the “Vapor Pressure” value in [1] (20° C.) was “.3 mmHg”.

As to Methyl cyclohexanol, in [1] (30° C.), the “Vapor Pressure” value was 1.5 mmHg.

Consider Vitamin A, for which, in [15], the tumor development entry is on record as “inhibit tumor development”.

Take Vitamin E: the “formation of nitrosamines on epithelial membranes” value in [9] is reported as “prevent the formation of nitrosamines”.
